For 1 compound, Ki results are on record in ChEMBL document CHEMBL3639183, “Anellated pyridine compounds” (2013).

The term Ki denotes the equilibrium dissociation constant of an inhibitor or competing ligand from its target. Higher therefore signals lower affinity.

What all share (type): cell-based
In assay [1] the target is 5-hydroxytryptamine receptor 2A (Homo sapiens, UniProt P28223). Briefly: (§1) Radioligand Binding Assay: The ability of the compounds to bind to the 5-HT2A, D3 and D2 receptors was determined using radioligand binding to cloned receptors selectively expressed in HEK-293 EBNA cells.
In assay [2] the target is D(2) dopamine receptor (Homo sapiens, UniProt P14416). The description is as §1.
The target of assay [3] is D(3) dopamine receptor (Homo sapiens, UniProt P35462). The description is as §1.
Sequence of D(3) dopamine receptor (P35462 whole entry): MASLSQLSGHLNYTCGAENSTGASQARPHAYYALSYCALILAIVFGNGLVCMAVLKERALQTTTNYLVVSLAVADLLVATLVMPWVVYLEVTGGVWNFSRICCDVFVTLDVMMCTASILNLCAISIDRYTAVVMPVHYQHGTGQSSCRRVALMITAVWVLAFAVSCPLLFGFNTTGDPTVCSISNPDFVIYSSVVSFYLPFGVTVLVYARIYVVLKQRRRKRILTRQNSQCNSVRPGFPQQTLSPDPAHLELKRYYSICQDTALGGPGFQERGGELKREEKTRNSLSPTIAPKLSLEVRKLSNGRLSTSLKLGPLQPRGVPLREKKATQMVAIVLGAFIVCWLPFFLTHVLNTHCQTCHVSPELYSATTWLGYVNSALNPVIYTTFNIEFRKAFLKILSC

Sequence of 5-hydroxytryptamine receptor 2A (P28223 whole entry): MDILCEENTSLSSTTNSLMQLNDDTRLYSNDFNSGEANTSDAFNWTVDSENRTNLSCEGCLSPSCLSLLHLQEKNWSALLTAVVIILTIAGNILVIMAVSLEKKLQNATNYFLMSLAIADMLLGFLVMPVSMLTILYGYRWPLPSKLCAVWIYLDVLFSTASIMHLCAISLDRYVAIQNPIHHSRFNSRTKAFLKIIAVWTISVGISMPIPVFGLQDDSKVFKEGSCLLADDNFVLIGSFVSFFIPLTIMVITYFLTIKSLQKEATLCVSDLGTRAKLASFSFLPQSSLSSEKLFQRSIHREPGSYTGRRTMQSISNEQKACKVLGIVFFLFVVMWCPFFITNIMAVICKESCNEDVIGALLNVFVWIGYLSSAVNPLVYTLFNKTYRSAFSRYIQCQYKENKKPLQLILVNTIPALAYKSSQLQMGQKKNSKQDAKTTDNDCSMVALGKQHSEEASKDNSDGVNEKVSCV
Sequence of D(2) dopamine receptor (P14416 whole entry): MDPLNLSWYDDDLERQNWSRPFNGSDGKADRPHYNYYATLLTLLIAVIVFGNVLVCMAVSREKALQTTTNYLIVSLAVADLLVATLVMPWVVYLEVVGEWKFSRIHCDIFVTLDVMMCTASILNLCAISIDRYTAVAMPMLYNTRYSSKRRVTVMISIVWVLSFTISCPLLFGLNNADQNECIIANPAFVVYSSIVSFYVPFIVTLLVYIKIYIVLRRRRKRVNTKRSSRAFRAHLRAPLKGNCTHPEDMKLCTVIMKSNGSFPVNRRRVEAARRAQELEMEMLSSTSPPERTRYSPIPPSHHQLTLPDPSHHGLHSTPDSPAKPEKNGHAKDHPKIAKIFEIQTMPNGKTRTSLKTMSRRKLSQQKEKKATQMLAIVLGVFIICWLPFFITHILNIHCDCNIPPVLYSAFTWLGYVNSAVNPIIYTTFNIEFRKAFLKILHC

Regarding `CC(C)(O)C(=O)N[C@H]1CC[C@H](CCN2CCN(c3nccc4c3CCO4)CC2)CC1`, the Ki in assay [1] was determined as 7.82 nM; in assay [2], 1260 nM; in assay [3], 195 nM.
